We go through 29 compounds from US7320979B2, “N-[(piperazinyl)hetaryl]arylsulfonamide compounds” (Abbott GmbH & Co. KG., priority 2003, dated 2008).

Where a name gives a salt, the structure may show the parent alone.

The target in assay [1] is T1, human dopamine D3 receptors (Homo sapiens, UniProt P35462).
T1 construct: expressed in transfected cells; host or cells: HEK-293
As to the kind of experiment: Dopamine D3 receptor binding, displacement of [125I]-iodosulpride. As to conditions: membranes of HEK-293 cells stably expressing human D3 receptors; 0.1 nM [125I]-iodosulpride; 25° C., 60 minutes. As for the experimental part:
(§1) The substance to be tested was either dissolved in methanol/Chremophor® (BASF-AG) or in dimethyl sulfoxide and then diluted with water to the desired concentration.
(§2) Each assay mixture was run in triplicate.
The incubation buffer contained 50 mM tris, 120 mM NaCl, 5 mM KCl, 2 mM CaCl2, 2 mM MgCl2 and 0.1% bovine serum albumin, 10 μM […] and 0.1% ascorbic acid (prepared fresh daily). The buffer was adjusted to pH 7.4 with HCl.
(§3) After having been incubated at 25° C. for 60 minutes, the assay mixtures were filtered through a Whatman GF/B glass fiber filter under vacuum using a cell collecting device. The filters were transferred to scintillation viols using a filter transfer system. After 4 ml of Ultima Gold® (Packard) have been added, the samples were shaken for one hour and the radioactivity was then counted in a Beta-Counter (Packard, Tricarb 2000 or 2200CA). The cpm values were converted into dpm using a standard quench series and the program belonging to the instrument.
(§4) The inhibition curves were analyzed by means of iterative nonlinear regression analysis using the Statistical Analysis System (SAS) which is similar to the “LIGAND” program described by Munson and Rodbard.

For assay [2], the target named is T2, human dopamine D2L receptors (long isoform) (Homo sapiens, UniProt P14416).
T2 construct: expressed in transfected cells; host or cells: HEK-293
As to the kind of experiment: Dopamine D2L receptor binding, displacement of [125I] iodospiperone. The note with it: footnote: ratio of the Ki values of the D3 and D2L binding tests. As for the experimental part: as §1, §2
The incubation buffer contained 50 mM tris, 120 mM NaCl, 5 mM KCl, 2 mM CaCl2, 2 mM MgCl2 and 0.1% bovine serum albumin. The buffer was adjusted to pH 7.4 with HCl.
as §3, §4

T1 sequence (P35462 whole entry): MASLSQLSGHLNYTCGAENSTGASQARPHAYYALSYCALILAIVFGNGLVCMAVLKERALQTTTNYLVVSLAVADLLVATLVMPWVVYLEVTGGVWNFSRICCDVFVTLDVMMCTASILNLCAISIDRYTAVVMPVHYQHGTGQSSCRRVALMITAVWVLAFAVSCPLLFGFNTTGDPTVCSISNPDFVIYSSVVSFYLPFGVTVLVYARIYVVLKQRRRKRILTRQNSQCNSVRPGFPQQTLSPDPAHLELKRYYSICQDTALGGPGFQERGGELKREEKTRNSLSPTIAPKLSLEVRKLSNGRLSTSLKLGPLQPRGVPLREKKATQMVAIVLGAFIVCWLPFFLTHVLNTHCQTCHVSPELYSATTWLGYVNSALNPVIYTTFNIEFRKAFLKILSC
T2 sequence (P14416 whole entry, canonical isoform): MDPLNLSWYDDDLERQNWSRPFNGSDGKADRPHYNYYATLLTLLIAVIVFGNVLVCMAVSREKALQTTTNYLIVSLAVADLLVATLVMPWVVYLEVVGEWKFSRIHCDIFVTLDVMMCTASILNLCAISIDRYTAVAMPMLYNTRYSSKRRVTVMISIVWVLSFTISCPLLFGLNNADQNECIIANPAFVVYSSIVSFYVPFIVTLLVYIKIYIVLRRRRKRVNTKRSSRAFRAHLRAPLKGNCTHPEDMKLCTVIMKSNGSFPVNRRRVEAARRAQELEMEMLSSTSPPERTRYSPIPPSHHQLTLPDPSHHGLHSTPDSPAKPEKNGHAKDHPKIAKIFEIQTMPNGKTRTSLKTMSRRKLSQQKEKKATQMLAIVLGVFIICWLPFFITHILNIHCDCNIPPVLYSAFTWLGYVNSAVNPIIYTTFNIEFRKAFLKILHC

With `C=CCN1CCN(c2ccc(NS(=O)(=O)c3ccc(C(C)C)cc3)c(C)n2)CC1` [Example 43], the Ki in assay [1] worked out at 1.1 nM. In assay [2], the “Selectivity vs. D2L” value was determined as 80.
For `CC(C)c1ccc(S(=O)(=O)Nc2ccc(N3CCN(CCCF)CC3)nc2)cc1.Cl` [Example 32, N-{6-[4-(3-Fluoropropyl)piperazin-1-yl]pyridin-3-yl}-4-isopropylbenzenesulfonamide hydrochloride], the inhibition constant Ki in assay [1] amounted to 17 nM. Further, the “Selectivity vs. D2L” value in assay [2] was 74.
In the same order, the values of `C=CCN1CC2CC1CN2c1ccc(NS(=O)(=O)c2ccc(C(C)C)cc2)cn1.Cl` (stereo not shown) [Example 30, N-[6-(5-Allyl-2,5-diazabicyclo[2.2.1]hept-2-yl)pyridin-3-yl]-4-isopropylbenzenesulfonamide hydrochloride] are 11.1 nM and 17.
As for `CCN1CCN(c2ncc(NS(=O)(=O)c3ccc(C(C)C)cc3)cn2)CC1.Cl` [Example 53, N-[2-(4-Ethyl-piperazin-1-yl)-pyrimidin-5-yl]-4-isopropylbenzenesulfonamide, hydrochloride], in assay [1], the inhibitory constant (Ki) stood at 8.8 nM. In assay [2], the “Selectivity vs. D2L” value amounted to 149.
In the same order, the values of `CCCN1CCN(c2ccc(NS(=O)(=O)c3ccc(C(C)C)cc3)cn2)C[C@@H]1C` [Example 14a, 4-Isopropyl-N-{6-[(3S)-methyl-4-propylpiperazin-1-yl]pyridin-3-yl}benzenesulfonamide] are 1.5 nM and 184.
Take `C=CCN1CCN(c2ncc(NS(=O)(=O)c3ccc(C(C)C)cc3)cn2)C[C@@H]1C.Cl` [Example 55, N-[2-((S)-4-Allyl-3-methyl-piperazin-1-yl)-pyrimidin-5-yl]-4-isopropyl-benzenesulfonamide, hydrochloride]: the affinity in assay [1] corresponds to a Ki of 2.9 nM. The “Selectivity vs. D2L” value in assay [2] came out at 159.
In the case of `Cc1cc(N2CCNCC2)ncc1NS(=O)(=O)c1ccc(C(C)C)cc1.Cl` [Example 36, 4-Isopropyl-N-(4-methyl-6-piperazin-1-ylpyridin-3-yl)-benzenesulfonamide hydrochloride], in assay [1], affinity was put at a Ki of 5.4 nM. For the same compound, the “Selectivity vs. D2L” value in assay [2] came to 50.
On to `CCCN1CCN(c2ncc(NS(=O)(=O)c3ccc(CC)cc3)cn2)C[C@@H]1C.Cl` [Example 57, 4-Ethyl-N-[2-((S)-3-methyl-4-propyl-piperazin-1-yl)-pyrimidin-5-yl]-benzenesulfonamide, hydrochloride], for which the affinity in assay [1] corresponds to a Ki of 7.3 nM. Besides, in assay [2], the “Selectivity vs. D2L” value amounted to 234.
Consider `C=CCN1CCN(c2ccc(NS(=O)(=O)c3ccc(CCC)cc3)cn2)CC1` [Example 2, N-[6-(4-Allylpiperazin-1-yl)pyridin-3-yl]-4-propylbenzenesulfonamide], for which the inhibitory constant (Ki) in assay [1] is 5.5 nM. For the same compound, in assay [2], the “Selectivity vs. D2L” value amounted to 25.
In the same order, the values of `C=CCN1CCN(c2ccc(NS(=O)(=O)c3ccc(CC)cc3)cn2)CC1.Cl` [Example 5, N-[6-(4-Allylpiperazin-1-yl)pyridin-3-yl]-4-ethylbenzenesulfonamide hydrochloride] are 11.4 nM and 108.
With `C=CCN1CCN(c2cc(C)c(NS(=O)(=O)c3ccc(C(C)C)cc3)cn2)CC1.Cl` [Example 37, N-[6-(4-Allylpiperazin-1-yl)-4-methylpyridin-3-yl]-4-isopropylbenzenesulfonamide hydrochloride], the Ki in assay [1] is 2.7 nM. In assay [2], the “Selectivity vs. D2L” value was found to be 86.
In the case of `CCCN1CCN(c2ncc(NS(=O)(=O)c3ccc(C(C)C)cc3)cn2)CC1.Cl` [Example 17, 4-Isopropyl-N-[2-(4-propylpiperazin-1-yl)pyrimidin-5-yl]benzenesulfonamide hydrochloride], in assay [1], affinity was put at a Ki of 8.2 nM. In addition, in assay [2], the “Selectivity vs. D2L” value is 148.
`C=Cc1ccc(S(=O)(=O)Nc2ccc(N3CCN(CCC)[C@@H](C)C3)nc2)cc1.Cl` [Example 47, N-[6-((S)-3-methyl-4-propyl-piperazin-1-yl)-pyridin-3-yl]-4-vinylbenzenesulfonamide, hydrochloride] returned a Ki in assay [1] of 6.1 nM. Besides, the “Selectivity vs. D2L” value in assay [2] was found to be 118.
In the same order, the values of `C=CCN1CCN(c2ccc(NS(=O)(=O)c3ccc(C(C)C)cc3)c(OC)n2)C[C@@H]1C.Cl` [Example 48, N-[6-((S)-4-Allyl-3-methyl-piperazin-1-yl)-2-methoxy-pyridin-3-yl]-4-isopropylbenzenesulfonamide, hydrochloride] are 0.8 nM and 21.
`C=CCN1CCN(c2ccc(OS(=O)(=O)c3ccc(C(C)C)cc3)cn2)CC1` [Example 59, 4-Isopropyl-benzenesulfonic acid 6-(4-allyl-piperazin-1-yl)-pyridin-3-yl ester]: the Ki in assay [1] came to 16.2 nM. Moreover, the “Selectivity vs. D2L” value in assay [2] is reported as 75.
Consider `C=CCN1CCN(c2ccc(NS(=O)(=O)c3ccc(C(C)(C)C)cc3)c(C)n2)CC1` [Example 44, 4-tert-Butyl-[N-[2-(4-allylpiperazin-1-yl)-6-methylpyridin-5-yl]-benzenesulfonamide, fumarate], for which, in assay [1], the Ki was 1.4 nM. Besides, the “Selectivity vs. D2L” value in assay [2] is given as 41.
`C=CCN1CCN(c2ccc(NS(=O)(=O)c3ccc(C(C)C)cc3)cn2)C[C@@H]1CC.Cl` [Example 50, N-[6-((S)-4-Allyl-3-ethyl-piperazin-1-yl)-pyridin-3-yl]-4-isopropylbenzenesulfonamide, hydrochloride] returned an inhibitory constant (Ki) in assay [1] of 9.9 nM. Besides, the “Selectivity vs. D2L” value in assay [2] is on record as 57.
The corresponding values for “N-[2-(4-Allylpiperazin-1-yl)pyridin-5-yl]-4-(N-pyrrolidinyl)benzenesulfonamide fumarate [Example 42]” are 5.3 nM and 33.
In the same order, the values of `CCCN1CCN(c2ccc(OS(=O)(=O)c3ccc(C(C)C)cc3)cn2)CC1.Cl` [Example 60, 4-Isopropyl-benzenesulfonic acid 6-(4-propyl-piperazin-1-yl)-pyridin-3-yl ester, hydrochloride] are 17.4 nM and 47.
As to `CC(C)c1ccc(S(=O)(=O)Nc2ccc(N3CCN(C)CC3)nc2)cc1` [Example 10, 4-Isopropyl-N-[6-(4-methylpiperazin-1-yl)pyridin-3-yl]benzenesulfonamide], affinity in assay [1] was put at a Ki of 7.5 nM. Moreover, the “Selectivity vs. D2L” value in assay [2] came to 93.
For the compound `CCCN1CCN(c2cc(C)c(NS(=O)(=O)c3ccc(C(C)C)cc3)cn2)CC1.Cl` [Example 38, 4-Isopropyl-N-[4-methyl-6-(4-propylpiperazin-1-yl)pyridin-3-yl]-benzenesulfonamide hydrochloride], the Ki in assay [1] came out at 17.2 nM. Also, in assay [2], the “Selectivity vs. D2L” value is listed as 22.
Take `C=CCN1CCN(c2ccc(NS(=O)(=O)c3ccc(CCCC)cc3)cn2)CC1` [Example 3, N-[6-(4-Allylpiperazin-1-yl)pyridin-3-yl]-4-butylbenzenesulfonamide]: the inhibitory constant (Ki) in assay [1] was determined as 5.9 nM. The “Selectivity vs. D2L” value in assay [2] was determined as 15.
The corresponding values for `CC(C)c1ccc(S(=O)(=O)Nc2ccc(N3CCNCC3)nc2)cc1` [Example 7, 4-Isopropyl-N-(6-piperazin-1-ylpyridin-3-yl)benzenesulfonamide] are 11.4 nM and 68.
The corresponding values for `CCN1CCN(c2ccc(NS(=O)(=O)c3ccc(C(C)C)cc3)cn2)CC1.Cl` [Example 11, N-[6-(4-Ethylpiperazin-1-yl)pyridin-3-yl]-4-isopropylbenzenesulfonamide hydrochloride] are 6.2 nM and 77.
In the case of `CCCN1CCN(c2ncc(NS(=O)(=O)c3ccc(C(C)C)cc3)cn2)C[C@@H]1C.Cl` [Example 56, 4-Isopropyl-N-[2-((S)-3-methyl-4-propyl-piperazin-1-yl)-pyrimidin-5-yl]-benzenesulfonamide, hydrochloride], the inhibition constant Ki in assay [1] came out at 1.6 nM. Also, in assay [2], the “Selectivity vs. D2L” value was 399.
Consider `C=CCN1CCN(c2ccc(NS(=O)(=O)c3ccc(C=C)cc3)cn2)CC1.Cl` [Example 6, N-[6-(4-Allylpiperazin-1-yl)pyridin-3-yl]-4-vinylbenzenesulfonamide hydrochloride], for which the inhibitory constant (Ki) in assay [1] was determined as 9.7 nM. In assay [2], the “Selectivity vs. D2L” value stood at 169.
As to `C=Cc1ccc(S(=O)(=O)Nc2ccc(N3CCN(CCC)CC3)nc2)cc1.Cl` [Example 31, N-[6-(4-Propylpiperazin-1-yl)pyridin-3-yl]-4-vinylbenzenesulfonamide hydrochloride], the Ki in assay [1] amounted to 14 nM. The “Selectivity vs. D2L” value in assay [2] was 96.
Turning to `CCCN1CCN(c2ccc(NS(=O)(=O)c3ccc(Br)cc3)cn2)CC1` [Example 27, 4-Bromo-N-[6-(4-propylpiperazin-1-yl)pyridin-3-yl]-benzenesulfonamide], in assay [1], affinity was put at a Ki of 21.4 nM. For the same compound, in assay [2], the “Selectivity vs. D2L” value is given as 55.
Compound `CCCN1CCN(c2ccc(NS(=O)(=O)c3ccc(C(C)C)cc3)c(OC)n2)C[C@@H]1C.Cl` [Example 49, 4-Isopropyl-N-[2-methoxy-6-((S)-3-methyl-4-propyl-piperazin-1-yl)-pyridin-3-yl]-benzenesulfonamide, hydrochloride] came in with an inhibition constant Ki in assay [1] of 0.4 nM. Besides, in assay [2], the “Selectivity vs. D2L” value is given as 19.
